Legend:
microglia cells [1] = assay: Seahorse MitoStress assay; details: 500 μM, 24 h
microglia cells [2] = assay: ROS production assay (DCFDA) in microglia cells; type: cell-based, Human; details: 1 μM of free ARVs or NPs with respect to the loaded drug, 24 h
Experimental: ROS Production Assay in Microglia Cells: The ROS generation in the microglia cells were determined using DCFDA assay. Microglia cells were plated in the white wall coated 96-well plate with density of 20,000 cells per well and grown for 16 h. The SQV, EFV, DRV, DTG, EVG and their nanoformulations were added to the cells at concentration of 1 μM with respect to the ARTs for 24 h. After 24 h, the media was collected and used to determine IL-1β, an inflammation maker using commercially available kit. The DCFDA solution was made in media at the concentration of 100 μM. 100 μL of this solution was added to each well and cells were incubated for 30 min. […] The obtained values were normalized using BCA assay.

SMILES: CN[C@@H](C)Cc1ccccc1 [meth, methamphetamine]
- ATP production (microglia cells [1]): substantially decreased
- basal respiration (microglia cells [1]): substantially decreased
- maximal respiration (microglia cells [1]): substantially decreased

SMILES: CC(C)CN(C[C@@H](O)[C@H](Cc1ccccc1)NC(=O)O[C@H]1CO[C@H]2OCC[C@H]21)S(=O)(=O)c1ccc(N)cc1 [Darunavir]
- ROS generation (microglia cells [2]): increased ROS significantly

SMILES: O=C1Nc2ccc(Cl)cc2[C@@](C#CC2CC2)(C(F)(F)F)O1 [Efavirenz]
- ROS generation (microglia cells [2]): increased ROS significantly

SMILES: C[C@@H]1CCO[C@H]2Cn3cc(C(=O)NCc4ccc(F)cc4F)c(=O)c(O)c3C(=O)N12 [Dolutegravir]
- ROS generation (microglia cells [2]): increased ROS significantly

SMILES: COc1cc2c(cc1Cc1cccc(Cl)c1F)c(=O)c(C(=O)O)cn2[C@H](CO)C(C)C [Elvitegravir]
- ROS generation (microglia cells [2]): increased ROS significantly

SMILES: COC(=O)[C@H]1[C@@H](OC(=O)c2ccccc2)C[C@@H]2CC[C@H]1N2C [cocaine]
- ATP production (microglia cells [1]): substantially decreased
- basal respiration (microglia cells [1]): substantially decreased
- maximal respiration (microglia cells [1]): substantially decreased
